Laboratory results as given in patent US7595330B2, “Benzimidazole thiophene compounds” (SmithKline Beecham Corporation, priority 2005, dated 2009).
Like-named read-outs stand apart in the source and are kept apart here. Each block holds one compound with its values, some of them ahead of it.

Assays:
HCT116 [1] = test: Methylene blue growth inhibition assay, HCT116; format: cell-based; details: Homo sapiens
Experimental: (§1) II. Methylene Blue Growth Inhibition Assay—Inhibition of Cell Proliferation by PLK1 Inhibitors
(§2) Generally, exponentially growing cell lines of different tumor origins, cultured in appropriate media containing 10% fetal bovine serum at 37° C. in a 5% CO2 incubator were plated at low density (less than 2000 cells/well) in 96-well plates. […]. Seventy two hours post-treatment, cell numbers were determined using 100 μl per well of methylene blue (Sigma M9140) (0.5% in 50:50 Ethanol:water). Stain was incubated at room temperature for 30 minutes before plates were rinsed and dye solubilized in 1% N-lauroyl sarcosine, sodium salt, (Sigma L5125, in PBS) (further details of a methylene blue assay are described below). Plates were read on a microplate reader, measuring the OD at 620 nm.
(§3) . The data are shown in Table 1 below and represent a compilation of several different experiments, each performed using the general parameters outlined above, although minor variations may have been employed in some instances.
(§4) In one assay, normal human foreskin fibroblasts (HFF), human colon (HCT116, RKO), lung (H460, A549) and breast (MCF7) tumor cell lines were cultured in high glucose DMEM (Life Technologies) containing 10% fetal bovine serum (FBS) at 37° C. in a humidified 5% CO2, 95% air incubator. Cells were harvested using trypsin/EDTA, counted using a haemocytometer, and plated in 100 μL of culture media per well, at the following densities, in a 96-well tissue culture plate (Falcon 3075): HFF 5,000 cells/well, HCT116 3,000 cells/well, RKO 2,500 cells/well, H460 2,500 cells/well, A549 5,000 cells/well, MCF7 4,000 cells/well. The next day, compounds were diluted in low glucose DMEM containing 100 μg/mL gentamicin, at twice the final required concentration, from 10 mM stock solutions in DMSO. 100 μL/well of these dilutions were added to the 100 μL of media currently in the assay plates. Medium containing 0.6% DMSO was added to control wells. The final concentration of DMSO in all wells was 0.3%. Cells were incubated at 37° C., 5% CO2 for 72 h. Medium was removed by aspiration. Cell biomass was estimated by staining cells with 80 μL per well methylene blue (Sigma M9140, 0.5% in 50:50 ethanol:water), and incubation at room temperature for 30-60 min. Stain was removed by aspiration and the plates rinsed by immersion in water, then air-dried. To release stain from the cells, 100 μL of solubilization solution was added (1% N-lauroyl sarcosine, Sodium salt, Sigma L5125, in PBS), and plates were shaken gently for about 30 min. Optical density at 620 nm was measured on a microplate reader. Percent inhibition of cell growth was calculated relative to vehicle treated control wells. […].

RKO = test: Methylene blue growth inhibition assay, RKO; format: cell-based; details: Homo sapiens, 72 h
Experimental: as §1, §2, §3, §4

MCF7 [2] = test: Methylene blue growth inhibition assay, MCF7; format: cell-based; details: Homo sapiens
Experimental: as §1, §2, §3, §4

H460 = test: Methylene blue growth inhibition assay, H460; format: cell-based; details: Homo sapiens
Experimental: as §1, §2, §3, §4

[3] = tested on: normal human foreskin fibroblasts (HFF); test: Methylene blue growth inhibition assay, HFF; format: cell-based; details: Fibroblast, 72 h
Experimental: as §1, §2, §3, §4

[4] = High throughput solubility assay; format: physicochemical; details: aqueous buffer, pH 7.4, 0.05M phosphate buffer
Experimental: IV. High Throughput Solubility Assay
Two samples are prepared for each compound. One (the standard sample) contains the compound at a fixed concentration of 20 μM in an aqueous/organic mixed solvent cocktail. The other (the test sample) contains the compound at a maximum concentration of 200 μM in pH 7.4, 0.05M phosphate buffer and shaking for 24 h. The test sample is filtered by 0.45μ filter and then spun for 10 min to remove any undissolved solid. HPLC analyses are preformed on these samples. The peak areas are used for computing solubility.

human plasma proteins = test: Protein binding to human plasma proteins using equilibrium dialysis; format: in vitro ADME; details: pH 7.4, equilibrium dialysis 6 h, 37° C.
Experimental: III. Determination of Protein Binding to Human Plasma Proteins Using Equilibrium Dialysis
96 Well Plate (High Throughput Dialysis): Stock solutions of compounds were spiked into human plasma at a target concentration of 2000 ng/mL. The mixture was inverted gently several times to insure homogeneity and triplicate 50 μL aliquots were collected to verify initial concentrations. Following assembly of dialysis plate (HTDialysis membrane strips, molecular weight cut off limit of 12,000-14,000 daltons), spiked plasma (150 μL) was placed in the donor compartment of the well and Phosphate Buffered Saline pH 7.4 (150 μL) in the receiver compartment. Eight wells were set up per compound and plasma type. Plate was placed in a 37° C. incubator on a plate shaker. Following the 6 h incubation period, the plate was removed. Single 50 μL aliquots from each donor and receiver compartment (per well) were analyzed. Sample analysis was by LC/MS/MS (results reported as Drug Peak Area/Internal Standard Peak Area ratios). Protein binding assay can also be performed using dialysis cells instead of HT Dialysis 96 well plates. In Table 1, % Protein Binding, +=>98%; ++=95-98%: +++=<95%.

A549 = test: Methylene blue growth inhibition assay, A549; format: cell-based; details: Homo sapiens
Experimental: as §1, §2, §3, §4

PLK1 kinase domain = target: T1, PLK1 kinase domain (Homo sapiens, UniProt P53350); test: Assay for inhibition of PLK1 (SPA, 33P-ATP, biotinylated peptide substrate); format: biochemical; details: 1 μM ATP, 2 nM PLK1 kinase domain; read-out: PLK1 pIC50 (converted)
T1 construct: made in house; host or cells: baculovirus infected T. ni cells
T1 sequence (P53350 21-346): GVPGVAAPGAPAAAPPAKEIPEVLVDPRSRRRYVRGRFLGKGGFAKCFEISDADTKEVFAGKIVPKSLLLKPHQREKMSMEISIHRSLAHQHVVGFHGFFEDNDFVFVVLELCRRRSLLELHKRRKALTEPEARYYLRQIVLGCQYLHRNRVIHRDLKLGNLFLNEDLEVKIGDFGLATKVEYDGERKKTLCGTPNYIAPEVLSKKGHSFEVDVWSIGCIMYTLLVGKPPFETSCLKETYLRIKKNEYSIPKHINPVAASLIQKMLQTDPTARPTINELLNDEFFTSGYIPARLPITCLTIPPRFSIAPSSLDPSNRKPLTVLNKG
Experimental: I. Assay for Inhibition of PLK1
All procedures were performed at 4° C. Cells were lysed in 50 mM HEPES, 200 mM NaCl, 50 mM imidazole, 5% glycerol; pH 7.5. The homogenate was centrifuged at 14K rpm in a SLA-1500 rotor for 1 h and the supernatant filtered through a 1.2 micron filter. The supernatant was loaded onto a Nickel chelating Sepharose (Amersham Pharmacia) column and washed with lysis buffer. Protein was eluted using 20%, 30% and 100% buffer B steps where buffer B is 50 mM HEPES, 200 mM NaCl, 300 mM imidazole, 5% glycerol; pH 7.5. Fractions containing PLK were determined by SDS-PAGE. Fractions containing PLK were diluted five-fold with 50 mM HEPES, 1 mM DTT, 5% glycerol; pH 7.5, then loaded on an SP Sepharose (Amersham Pharmacia) column. After washing the column with 50 mM HEPES, 1 mM DTT, 5% glycerol; pH 7.5, PLK was step eluted with 50 mM HEPES, 1 mM DTT, 500 mM NaCl; 5% glycerol; pH 7.5. PLK was concentrated using a 10 kDa molecular weight cutoff membrane and then loaded onto a Superdex 200 gel filtration (Amersham Pharmacia) column equilibrated in 25 mM HEPES, 1 mM DTT, 500 mM NaCl, 5% glycerol; pH 7.5. Fractions containing PLK were determined by SDS-PAGE. PLK was pooled, aliquoted and stored at −80° C. Samples were quality controlled using mass spectrometry, N-terminal sequencing and amino acid analysis.
B. Enzyme activity +/− inhibitors was determined as follows: All measurements were obtained under conditions where signal production increased linearly with time and enzyme. Test compounds were added to white 384-well assay plates (0.1 μL for 10 μL and some 20 μL assays, 1 μL for some 20 μL assays) at variable known concentrations in 100% DMSO. DMSO (1-5% final, as appropriate) and EDTA (65 mM in reaction) were used as controls.
Reaction Mix (10 or 20 μL) was quickly added to each well immediately following addition of enzyme via automated liquid handlers and incubated 1-1.5 h at 22° C. The 20 μL enzymatic reactions were stopped with 50 μL of stop mix (50 mM EDTA, 4.0 mg/ml Streptavidin SPA beads in Standard Dulbecco's PBS (without Mg^2+ and Ca^2+), 50 μM ATP) per well. The 10 μL reactions were stopped with 10 μL of stop mix (50 mM EDTA, 3.0 mg/mL Streptavidin-coupled SPA Imaging Beads (“LeadSeeker”) in Standard Dulbecco's PBS (without Mg^2+ and Ca^2+), 50 μM ATP) per well. Plates were sealed with clear plastic seals, spun at 500×g for 1 min or settled overnight, and counted in Packard TopCount for 30 seconds/well (regular SPA) or imaged using a Viewlux imager (LeadSeeker SPA). Signal above background (EDTA controls) was converted to percent inhibition relative to that obtained in control (DMSO-only) wells.

MV522 = test: Cell-Titer-Glo inhibition of cell proliferation, MV522; format: cell-based; details: CellTiter-Glo, 72 h
Experimental: (§5) V. Cell-Titer-Glo—Inhibition of Cell Proliferation by PLK1 Inhibitors
(§6) Exponentially growing cell lines of different tumor origins, cultured in appropriate media containing 10% fetal bovine serum at 37° C. in a 5% CO2 incubator were plated at low density (less than 2000 cells/well) in 96-well plates. Twenty four hours post-plating, cells were treated with different concentrations of test compounds ranging from 10 uM to 0.04 nM. Several wells were left untreated as a control. Seventy two hours post-treatment, cell numbers were determined using 50-100 ul per well of CellTiter-Glo (Promega #G7573). Plates were incubated at room temperature for 15 minutes and the chemiluminescent signal was read on the Victor V or Envison 2100 reader.
(§7) The Cell-Titer Glo data are shown in Table 2 below and represent a compilation of several different experiments, each performed using the general parameters outlined above, although minor variations may have been employed in some instances.

MX-1 = test: Cell-Titer-Glo inhibition of cell proliferation, MX-1; format: cell-based; details: Homo sapiens, MX1, CellTiter-Glo, 72 h
Experimental: as §5, §6, §7

HT29 = test: Cell-Titer-Glo inhibition of cell proliferation, HT29; format: cell-based; details: Homo sapiens, HT-29, CellTiter-Glo, 72 h
Experimental: as §5, §6, §7

A549-L = test: Cell-Titer-Glo inhibition of cell proliferation, A549-L; format: cell-based; details: CellTiter-Glo, 72 h
Experimental: as §5, §6, §7

H1299 = test: Cell-Titer-Glo inhibition of cell proliferation, H1299; format: cell-based; details: Homo sapiens, NCI-H1299, CellTiter-Glo, 72 h
Experimental: as §5, §6, §7

MCF7 [5] = test: Cell-Titer-Glo inhibition of cell proliferation, MCF7; format: cell-based; details: Homo sapiens, CellTiter-Glo, 72 h
Experimental: as §5, §6, §7

HCT116 [6] = test: Cell-Titer-Glo inhibition of cell proliferation, HCT116; format: cell-based; details: Homo sapiens, HCT-116, CellTiter-Glo, 72 h
Experimental: as §5, §6, §7

SKOV-3 = test: Cell-Titer-Glo inhibition of cell proliferation, SKOV-3; format: cell-based; details: Homo sapiens, SK-OV-3, CellTiter-Glo, 72 h
Experimental: as §5, §6, §7

COLO205 = test: Cell-Titer-Glo inhibition of cell proliferation, COLO205; format: cell-based; details: Homo sapiens, COLO 205, CellTiter-Glo, 72 h
Experimental: as §5, §6, §7

MDA-MB-468 = test: Cell-Titer-Glo inhibition of cell proliferation, MDA-MB-468; format: cell-based; details: Homo sapiens, CellTiter-Glo, 72 h
Experimental: as §5, §6, §7

IC50 (HCT116 [1]; HCT-116, methylene blue, 72 h, HCT116, read-out: HCT116 IC50): < 0.1 µM
IC50 (MCF7 [2]; methylene blue, 72 h, MCF7, read-out: MCF7 IC50): < 0.1 µM
IC50 (H460; NCI-H460, methylene blue, 72 h, H460, read-out: H460 IC50): < 0.1 µM
solubility at 24 h [4]: 30 to 100 µM
fraction unbound at 6 h, 2000 ng/mL (human plasma proteins): 0.02 to 0.05
IC50 (A549; methylene blue, 72 h, A549, read-out: A549 IC50): < 0.1 µM
IC50 (PLK1 kinase domain): < 10 nM
Structure (SMILES): C[C@@H](Oc1cc(-n2cnc3ccc(CS(C)(=O)=O)cc32)sc1C(N)=O)c1ccccc1Cl [Example 2, 3-{[(1R)-1-(2-Chlorophenyl)ethyl]oxy}-5-{6-[(methylsulfonyl)methyl]-1H-benzimidazol-1-yl}-2-thiophenecarboxamide]
IC50 (RKO; methylene blue, read-out: RKO IC50): < 0.1 µM
IC50 ([3]; methylene blue, HFF normal fibroblasts, read-out: HFF IC50): 0.1 to 1 µM

Structure (SMILES): C[C@@H](Oc1cc(-n2cnc3ccc(OC4CCNCC4)cc32)sc1C(N)=O)c1ccccc1C(F)(F)F [Example 5, 5-[6-(4-Piperidinyloxy)-1H-benzimidazol-1-yl]-3-({(1R)-1-[2-(trifluoromethyl)phenyl]ethyl}oxy)-2-thiophenecarboxamide]
IC50 (MV522): < 500 nM
IC50 (HCT116 [1]; HCT-116, 72 h, read-out: HCT116 IC50 (μM)): < 0.1 µM
IC50 (MX-1): < 500 nM
IC50 (RKO; read-out: RKO IC50 (μM)): < 0.1 µM
IC50 (HT29): < 500 nM
IC50 (A549-L): < 500 nM
IC50 (MCF7 [2]; MCF7, 72 h, read-out: MCF7 IC50 (μM)): < 0.1 µM
IC50 (H1299): < 500 nM
IC50 (H460; NCI-H460, 72 h, read-out: H460 IC50 (μM)): < 0.1 µM
IC50 (MCF7 [5]): < 500 nM
IC50 (HCT116 [6]): < 500 nM
IC50 (SKOV-3): < 500 nM
IC50 ([3]; read-out: HFF IC50 (μM)): 0.1 to 1 µM
solubility at 24 h [4]: > 100 µM
IC50 (COLO205): < 500 nM
fraction unbound at 6 h, 2000 ng/mL (human plasma proteins): 0.02 to 0.05
IC50 (A549; A549, 72 h, read-out: A549 IC50 (μM)): < 0.1 µM
IC50 (MDA-MB-468): < 500 nM
